Melting point data for 64 molecules are collected here from a melting point compilation (Tetko et al.; mined from patent text by program, amines drawn as free bases though some values may be those of a salt).

In general, melting point refers to the temperature of the solid-liquid transition.

Molecule `CCN1C(=O)c2cnc(-c3ccccc3)nc2N(C(=O)CCl)c2ccccc21` registered a melting point of 147 to 148 °C.
Molecule `COc1cccc(C(=O)Cl)c1OC(C)=O` came in with a melting point of 51 to 54 °C.
The molecule `CC(=O)N1CCN(C2=CC(C)(C)Oc3ccc(C#N)cc32)C1=NC#N` displayed a melting point of 200 to 201 °C.
In the case of `CC(C)c1cccc(C(C)C)c1NC(=O)NCCN1CCN(CCSc2nc3ncccc3o2)CC1` it was 175 to 176 °C; in that of `CCOP(=O)(OCC)ON=C1C=CC(=C(C#N)c2ccccc2C)S1`, 90 to 91 °C; in that of `CC(C)NC(=O)Nc1ccc(-c2ccnc3c(C(=O)c4cccs4)cnn23)s1`, 162 to 165 °C.
In the case of `CCC(=O)Oc1c(OC)cc(C)c(C(=O)c2c(OC)ccc(Cl)c2C)c1OC`, the melting point is 150 to 151 °C.
`COc1cc2c(Nc3ccc4cn[nH]c4c3)c(C#N)cnc2cc1OCCN(C)C` came in with a melting point of 218 to 219 °C.
The result for `O=[N+]([O-])c1cc([N+](=O)[O-])c(Nc2nc(Cl)ccc2C(F)(F)F)c(C(F)(F)F)c1` reads 129 to 131 °C; that for `CCOc1ccccc1-c1nc2nc(SC)ncc2c(=O)[nH]1`, 224 to 226 °C; that for `O=C(Nc1ccccc1)ONC1=Nc2ccc(Br)cc2C(c2ccccn2)=NC1`, 190 to 192 °C.
In the case of `CC(=O)NCC=C1CCc2ccc3nn(C)cc3c21` it was 200 to 202 °C; in that of `COc1cn(-c2ccc(OC(F)(F)F)cc2F)nc(-c2ccnn2-c2ccccc2)c1=O`, 117 to 118 °C; in that of `CC(C)(C)COC1CCC(=O)N1C(=O)c1ccccc1` (centres undefined), 83 to 85 °C.
In the case of `CCOC(=O)c1ccc(NCCC(c2ccc(Cl)cc2)c2ccc(Cl)cc2)cc1` it was 112 to 117 °C.
With `CCCCCS(=O)(=O)NC(=O)/C=C/c1ccc(OCCO[Si](c2ccccc2)(c2ccccc2)C(C)(C)C)cc1Oc1ncc(C(F)(F)F)cc1Cl`, the melting point came to 108 °C.
In the case of `O=C(CCCS(=O)c1ccccc1)NO` (centres undefined) it was 61 to 62 °C; in that of `CCOC(=O)c1ccc(C(=O)Nc2ccc3c(c2)N(C)C(=O)CCC3(C)C)cc1`, 174 to 175 °C.
In the case of `CC(C)c1nn(-c2ccc(C(F)(F)F)cn2)cc1CCCOc1nn(C)cc1CC(=O)O` it was 122 to 123 °C.
The result for `O=C1N(c2ccc(Br)cc2F)C(=S)C2CCCCC12O` (centres undefined) reads 163 to 164 °C; that for `COc1ccc(CCCCOCc2cccc(/C=C/c3cccc(NC(=O)CCC(C)(C)C(=O)O)c3)n2)cc1`, 141 to 142 °C.
`C=CCCCCCCCCNC(=O)NOCc1ccccc1` yielded a melting point of 53 to 55 °C.
In the case of `CC(C)CC(=O)Nc1ccc2oc3c(c2c1)CCC3` it was 162 to 163 °C; in that of `CCOC(=O)c1ncc(Cn2c(NC3CCN(C(=O)OCC)CC3)nc3ccccc32)o1`, 132 °C.
The result for `FC(F)(F)c1cccc(N=C=S)c1` reads 133 °C; that for `O=C1N[C@H](C(=O)O)Cc2cc(O)c(O)cc21`, 268 to 272 °C.
The result for `O=C(O)CN1C(=O)C(=Cc2ccc(Cc3cccnc3)s2)SC1=S` reads 254 to 256 °C.
Take `COc1nc2cc(C)c(C)cc2nc1C(=O)O`: the melting point was in the range of 180 to 182 °C.
Regarding `Cc1ccc(C)n1-c1ccc(F)c([N+](=O)[O-])c1`, the melting point lay within 99 to 101 °C.
In the case of `CC1(C)C=C(c2ccccn2)c2ccc(C#N)cc2OC1` it was 132 °C.
In the case of `COC(=O)c1cn(C2CC2)c2c(OC)c(N3CCC(CN)(CF)C3)c(F)cc2c1=O` (centres undefined) it was 143 to 145 °C; in that of `CCOC(=O)C1=C(C)Nc2ncn(C(C)C)c(=O)c2C1c1ccccc1F` (centres undefined), 178 to 180 °C.
The result for `COc1ccc2c(=O)cc(C(OC)OC)oc2c1` reads 99 to 101 °C; that for `O=C(CCCBr)N1CC(c2ccc(Cl)cc2)Sc2ccccc21` (centres undefined), 91 to 92 °C; that for `C[C@@H]1CN(Cc2ccccc2)C[C@H]1C(=O)NC1CC1` (relative stereo), 81 to 83 °C.
`COC(=O)c1ccc(Cl)cc1C1(c2ccccc2F)OCC(CCl)O1` (centres undefined): the melting point was in the range of 117 to 122 °C.
In the case of `CC[C@H](C)[C@H](NC(=O)O[C@@H](CC(C)C)C(=O)O)C(=O)NC1CCCCC1` it was 193 to 195 °C; in that of `O=C(c1ccc(F)cc1)c1ccc([N+](=O)[O-])cc1Cl`, 83 to 84 °C; in that of `CC(C)c1ccc(-n2nnc(-c3ccc(OC(=O)C(C)(C)C)cc3)n2)cc1`, 122 to 125 °C.
In the case of `CC(=O)NC[C@H]1CN(c2ccc(C3CCN(C(=O)CO)CC3)cc2)C(=O)O1` it was 155 to 157 °C.
In the case of `CCNC(=O)c1ccc(N2CCN(Cc3cc(C)c4c(c3)NC(=O)C(C)O4)CC2)c(Cl)c1` (centres undefined) it was 227 to 228 °C; in that of `NS(=O)(=O)c1ccc(NC(=O)Nc2ccc(F)cc2)cc1`, 242 to 243 °C.
The molecule `CCOC(=O)C(=O)Nc1cc(C)c(C)cc1[N+](=O)[O-]` gave a melting point of 109 °C.
In the case of `CC(=O)SC1NC(=O)C1C` (centres undefined) it was 53 to 65 °C.
`O=c1[nH]c2cc(Cl)cc(Cl)c2c(=O)n1Cc1ccc(F)cc1`: the melting point fell in the range of 301 to 304 °C.
In the case of `CN=C(NC#N)NCCSCc1[nH]cnc1Br` it was 144 to 146 °C; in that of `COc1ccc(N2CCOCC2)c2sc(-c3nc4c([nH]3)CCN(C(=O)OC(C)(C)C)CC4)nc12`, 120 °C.
The result for `O=C(c1cc(O)c2occc2c1)c1ccco1` reads 140 to 142 °C; that for `CCOC(=O)C1(C(=O)N(Cc2ccccc2)Cc2ccccc2)CC(=O)N(Cc2ccccc2)C1` (centres undefined), 112 to 115 °C.
On to `Cc1ccc2c(c1)S(=O)(=O)N=C(NC(C)C)N2`, for which the melting point is 266 to 268 °C.
In the case of `COC(OC)C1(C)CN=C(c2cc3cccc(N(C)S(=O)(=O)c4cccs4)c3[nH]2)S1` (centres undefined) it was 153 to 154 °C; in that of `NC1=C(NC=O)C(=O)N2CCN=C2N1`, 268 °C; in that of `COc1ccccc1[C@H](C)C(=O)N1C[C@@H]2[C@H](C1)C(c1ccccc1)(c1ccccc1)C[C@H](O)[C@@]2(O)c1ccccc1OC`, 178 to 180 °C.
As for `CCCc1cccnc1N(CC)C1CCN(C(=O)c2ccc[nH]2)CC1`, the melting point lay within 115 to 116 °C.
In the case of `Cc1cc(=O)c2ccc(OCCCN3CCC(NC(=O)c4ccccc4)CC3)cc2o1` it was 173 to 175 °C; in that of `O=C1N(CCCCCl)CCN1C1CCCCC1`, 30 to 35 °C; in that of `CCOC(=O)c1n[nH]cc1[N+](=O)[O-]`, 128 to 130 °C.
For `COC(=O)Cc1sc(=O)[nH]c1COc1ccccc1`, the melting point is 103 °C.
Turning to `CC(CCCc1ccccc1)c1cc2oc(=O)c3c(c2cc1O)CCCC3` (centres undefined), the melting point was in the range of 184 to 193 °C.
In the case of `N#Cc1c2c(c3c(c1N1CCCCC1)CCc1ccccc1-3)-c1ccccc1C2` it was 170 to 172 °C; in that of `CN1Cc2c(-c3nc(CCl)cs3)ncn2-c2ccc(F)cc2C1=O`, 239 to 241 °C.
Turning to `COC(=O)c1cc(C2OC(=O)CC(C)O2)cnc1C1=NC(C)(C(C)C)C(=O)N1` (centres undefined), the melting point lay within 65 to 75 °C.
The result for `CCCCN1CCN(c2nsc3nc4ccccc4n23)CC1` reads 121 to 122 °C; that for `CC(C)Sc1nc(C(F)(F)F)c(I)c(=O)[nH]1`, 212 to 215 °C.
